Measured values as given in PubChem BioAssay (NCI).
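The compound was tested at five concentrations on cells cultured in 96-well plates, with a 48-hour exposure period. GI50 is the concentration that inhibits growth by half. TGI is the concentration that stops growth completely.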

What was measured:
Assay in all cases: NCI anticancer screen, dose series, 48 h
[1] = test system: 786-0 renal
[2] = test system: A498 renal
[3] = test system: A549 NSCLC
[4] = test system: BT-549 breast
[5] = test system: CAKI-1 renal
[6] = test system: COLO 205 colon
[7] = test system: DU-145 prostate
[8] = test system: EKVX NSCLC
[9] = test system: HCC-2998 colon
[10] = test system: HCT-116 colon
[11] = test system: HOP-62 NSCLC
[12] = test system: HS 578T breast
[13] = test system: HT29 colon
[14] = test system: IGROV1 ovarian
[15] = test system: KM12 colon
[16] = test system: LOX IMVI melanoma
[17] = test system: M14 melanoma
[18] = test system: MALME-3M melanoma
[19] = test system: MCF7 breast
[20] = test system: MDA-MB-231 breast
[21] = test system: MDA-MB-435
[22] = test system: NCI-H226 lung
[23] = test system: NCI-H23 lung
[24] = test system: NCI-H460 lung
[25] = test system: NCI-H522 lung
[26] = test system: NCI/ADR-RES ovarian
[27] = test system: OVCAR-3 ovarian
[28] = test system: OVCAR-4 ovarian
[29] = test system: OVCAR-8 ovarian
[30] = test system: RXF 393 renal
[31] = test system: SF-268 CNS
[32] = test system: SF-295 CNS
[33] = test system: SK-MEL-2 melanoma
[34] = test system: SK-MEL-28 melanoma
[35] = test system: SK-MEL-5 melanoma
[36] = test system: SK-OV-3 ovarian
[37] = test system: SN12C renal
[38] = test system: SNB-19 CNS
[39] = test system: SNB-75 CNS
[40] = test system: SW-620 colon
[41] = test system: T-47D breast
[42] = test system: TK-10 renal
[43] = test system: U251 CNS
[44] = test system: UACC-257 melanoma
[45] = test system: UACC-62 melanoma
[46] = test system: UO-31 renal

With `N#CC1(Nc2ccc(Br)cc2)CCCC1` the GI50 [1] was 11.3 µM, the TGI [1] was > 100 µM and the GI50 [2] was > 100 µM. The TGI [2] was > 100 µM, the GI50 [3] was 8.15 µM and the TGI [3] was > 100 µM. For the same compound, the GI50 [4] was 22.2 µM, the TGI [4] was > 100 µM and the GI50 [5] was 0.529 µM. For the same compound, the TGI [5] was > 100 µM, the GI50 [6] was > 100 µM and the TGI [6] was > 100 µM. For the same compound, the GI50 [7] was > 100 µM, the TGI [7] was > 100 µM and the GI50 [8] was 7.27 µM. For the same compound, the TGI [8] was > 100 µM, the GI50 [9] was 8.3 µM and the TGI [9] was > 100 µM. The GI50 [10] was > 100 µM, the TGI [10] was > 100 µM and the GI50 [11] was > 100 µM. For the same compound, the TGI [11] was > 100 µM, the GI50 [12] was > 100 µM and the TGI [12] was > 100 µM. The GI50 [13] was > 100 µM, the TGI [13] was > 100 µM and the GI50 [14] was 75.4 µM. For the same compound, the TGI [14] was > 100 µM, the GI50 [15] was 1.86 µM and the TGI [15] was > 100 µM. For the same compound, the GI50 [16] was 0.543 µM, the TGI [16] was > 100 µM and the GI50 [17] was 1.2 µM. For the same compound, the TGI [17] was > 100 µM, the GI50 [18] was 42.6 µM and the TGI [18] was > 100 µM. For the same compound, the GI50 [19] was 9.98 µM, the TGI [19] was > 100 µM and the GI50 [20] was 3.16 µM. The TGI [20] was > 100 µM, the GI50 [21] was 3.78 µM and the TGI [21] was > 100 µM. For the same compound, the GI50 [22] was > 100 µM, the TGI [22] was > 100 µM and the GI50 [23] was > 100 µM. The TGI [23] was > 100 µM, the GI50 [24] was 1.99 µM and the TGI [24] was > 100 µM. For the same compound, the GI50 [25] was > 100 µM, the TGI [25] was > 100 µM and the GI50 [26] was 9.2 µM. For the same compound, the TGI [26] was > 100 µM, the GI50 [27] was 96.4 µM and the TGI [27] was > 100 µM. The GI50 [28] was > 100 µM, the TGI [28] was > 100 µM and the GI50 [29] was 26.5 µM. For the same compound, the TGI [29] was > 100 µM, the GI50 [30] was > 100 µM and the TGI [30] was > 100 µM. The GI50 [31] was > 100 µM, the TGI [31] was > 100 µM and the GI50 [32] was 2.3 µM. For the same compound, the TGI [32] was > 100 µM, the GI50 [33] was > 100 µM and the TGI [33] was > 100 µM. The GI50 [34] was > 100 µM, the TGI [34] was > 100 µM and the GI50 [35] was 3.05 µM. For the same compound, the TGI [35] was > 100 µM, the GI50 [36] was > 100 µM and the TGI [36] was > 100 µM. The GI50 [37] was 12.6 µM, the TGI [37] was > 100 µM and the GI50 [38] was > 100 µM. For the same compound, the TGI [38] was > 100 µM, the GI50 [39] was > 100 µM and the TGI [39] was > 100 µM. For the same compound, the GI50 [40] was 3.22 µM, the TGI [40] was > 100 µM and the GI50 [41] was 9.39 µM. The TGI [41] was > 100 µM, the GI50 [42] was > 100 µM and the TGI [42] was > 100 µM. For the same compound, the GI50 [43] was 44.5 µM, the TGI [43] was > 100 µM and the GI50 [44] was 31.4 µM. For the same compound, the TGI [44] was > 100 µM, the GI50 [45] was 0.427 µM and the TGI [45] was > 100 µM. For the same compound, the GI50 [46] was 4.69 µM and the TGI [46] was > 100 µM.
